According to patent US20140066449A1, “DIPYRIDINIUM DERIVATIVES” (SABREPHARM LIMITED, priority 2011, published 2014):
Values joined by “and” are separate entries in the source; they are usually repeats but may differ in a detail not shown here. Identical values can stand only once. Like-named read-outs stand apart in the source and are kept apart here.

How the values were obtained:
[1] = system: H460 non-small cell lung adenocarcinoma; experiment: MTT in vitro cytotoxicity, H460; assay type: cell-based; settings: H460, 10 day exposure
Protocol: (§1) All were stored in the dark at 4° C. An accurately weighed amount of each compound was dissolved in DMSO and Hank's Balanced Salt Solution (Sigma) according to Table 2 below:
(§2) Further dilutions were made in complete RPMI1640 cell culture medium (RPMI1640 cell culture medium supplemented with 10% foetal bovine serum, 1 mM L-glutamine, and 2 mM sodium pyruvate (all from Sigma)).
(§3) H460 non-small cell lung adenocarcinoma, HT-29 colon adenocarcinoma and MCF-7 breast adenocarcinoma (ECACC, Salisbury, Wiltshire) were used for analysis. Cells were cultured in complete RPMI1640 cell culture medium, and maintained as monolayer cultures at 37° C. in a humidified 5% CO2 environment.
(§4) Tumour cell growth inhibition was assessed using the MTT assay with a standard 96 hour plus an extended 10 day incubation. For the 96 hour assay 1×10^4 cells were inoculated into each well of a 96-well plate and incubated overnight at 37° C. in a humidified atmosphere containing 5% CO2 to give time to adhere to the wells and form a monolayer. For the 10 day incubation, 1×102 (H460 and HT-29) and 1×103 (MCF-7) cells were inoculated. The next day, culture medium was removed from each well and replaced with cell culture media for the untreated control, or media containing compound, and the plates then incubated for a further 96 hours or 10 days. […] After 96 hours or 10 days culture medium was removed and 200 μL of 0.5 mgmL-1 MTT solution (Sigma) in complete medium added to each well. Following a further 4 hours incubation, the solution was removed from each well and 150 μL of DMSO added to solubilise the formazan crystals resulting from MTT conversion. Absorbance values for the resulting solutions were read at 550 nm on a Multiskan Ex microplate reader (Thermo Fisher, Loughborough, UK) and cell survival calculated as the absorbance of treated cells divided by the control. Results are expressed in terms of IC50 values (i.e. concentration of compound required to kill 50% of cells), which were determined manually in Microsoft Excel from plots of concentration versus percentage cell survival, and all experiments were performed in triplicate.

[2] = system: HT-29 colon adenocarcinoma; experiment: MTT in vitro cytotoxicity, HT-29; assay type: cell-based; settings: HT-29, 10 day exposure
Protocol: as §1, §2, §3, §4

[3] = system: MCF-7 breast adenocarcinoma; experiment: MTT in vitro cytotoxicity, MCF-7; assay type: cell-based, human; settings: MCF-7, 10 day exposure
Protocol: as §1, §2, §3, §4

[4] = system: MCF-7 Human Breastadenocarclnoma Xenograft; experiment: MCF-7 xenograft model study; assay type: in vivo, mice
From the text: Evaluation of the Efficacy of the Compounds C & D (Examples 2 & 3 Respectively) in the MCF-7 Human Breastadenocarclnoma Xenograft Model

[5] = Redox potential study, square wave voltammetry; assay type: physicochemical; settings: 0.1 mol dm-3 LiNTf2, 20° C., first scan
Protocol: BioAnalytical Systems CV50W potentiostat (from BAS Inc., USA)
Square wave voltammetry (4 mV step, 25 mV pulse, 10 Hz SW frequency)
3 mm diameter glassy carbon working electrode (from BAS)
3 mm diameter glassy carbon counter electrode (from BAS)
Saturated calomel reference electrode (SCE, from Sycopel Scientific Ltd., UK)
0.1 mol dm-3 lithium bis(trifluoromethanesulphonyl)imide ((LiNTf2)CAS 90076-65-6, from 3M)
Voltammograms were recorded from 0.5 V to −1.2 V in deoxygenated solutions of the Compounds.

A2780 [ovarian] = experiment: Combination with cisplatin, A2780; assay type: cell-based
[6] = system: A2780/cis [cisplatin ovarian resistant line]; experiment: Combination with cisplatin, A2780/cis; assay type: cell-based
M 14 [melanoma] = experiment: Combination with cisplatin, M14; assay type: cell-based
MCF7 [Breast] = experiment: Combination with cisplatin, MCF-7; assay type: cell-based, human
[7] = system: human mitochondria isolated from HEK293 cells; experiment: ROS production in isolated mitochondria (DCFDA); assay type: biochemical; settings: isolated HEK293 mitochondria, 100 μM, 120 mins
Protocol: The ability of test compounds to impact ROS production in isolated mitochondria after 120 mins exposure was assessed.
Mitochondria were isolated from harvested human embryonic kidney (HEK293) cells (20×10^6) using a commercial kit (Thermo Scientific) before re-suspension in PBS to a final volume of 800 μL. […] Independent experiments (each assessing the impact of all four compounds along with a positive [AAPH; 5.0 mM] and vehicle control) were repeated three times.

[8] = highest concentration 30 μM, read-out: IC50 Run 1
[9] = highest concentration 100 μM, read-out: IC50 Run 2
[10] = highest concentration 100 μM, read-out: IC50 Run 3
[11] = 200 mg/kg, i.v., d 0, 2, 4, 7, 9 & 11
[12] = mean of runs, read-out: IC50 Mean
[13] = cisplatin 1 μM alone (compound 0 μM)
[14] = cisplatin 3 μM alone (compound 0 μM)
[15] = cisplatin 10 μM alone (compound 0 μM)

Row | Compound | IC50 [1, 8] | IC50 [1, 9] | IC50 [1, 10] | IC50 [2, 8] | IC50 [2, 9] | IC50 [2, 10] | IC50 [3, 8] | IC50 [3, 9] | IC50 [3, 10] | Growth delay [4, 11] | Maximum % weight loss [4, 11] | Reduction potential 1 [5] | Reduction potential 2 [5] | further results
1 | 3-(((2-(2-methoxyethoxy)(ethoxy)n)ethyl) hexane-1,6-diyldicarbamate)methyl)-6,7-dihydrodipyrido[1,2-a:2′,1′-c]pyrazine-5,8-diium bistrifluoromethanesulfonate [Compound D] | > 30000 nM | > 100000 nM | > 100000 nM | > 30000 nM | > 100000 nM | 81000 nM | > 30000 nM | 72000 nM | > 100000 nM | 2.4 days | 0% | −0.423 V vs. SCE | −0.828 V vs. SCE | 
2 | N.N.[Cl][Pt][Cl] [Cisplatin] | 1100 nM | 1000 nM | 900 nM | 2400 nM | 1300 nM | 700 nM | 2300 nM | 2300 nM | 2500 nM |  |  |  |  | IC50 [1, 12]: 1000 nM; IC50 [2, 12]: 1500 nM; IC50 [3, 12]: 2400 nM; % cell survival (A2780 [ovarian]; [13]): 49.5% and 52.5%; % cell survival (A2780 [ovarian]; [14]): 19.6% and 19.2%; % cell survival (A2780 [ovarian]; [15]): 4.8% and 5.8%; % cell survival [6, 15]: 36.3% and 39.7%; % cell survival ([6]; cisplatin 30 μM alone (compound 0 μM)): 8.7% and 8.6%; % cell survival ([6]; cisplatin 100 μM alone (compound 0 μM)): −0.5% and 1.1%; % cell survival (M 14 [melanoma]; [13]): 85.6% and 97.7%; % cell survival (M 14 [melanoma]; [14]): 77.1% and 84.8%; % cell survival (M 14 [melanoma]; [15]): 58.3% and 63.3%; % cell survival (MCF7 [Breast]; cisplatin 0.1 μM alone (compound 0 μM)): 107.4% and 110.8%; % cell survival (MCF7 [Breast]; cisplatin 0.3 μM alone (compound 0 μM)): 76% and 91.3%; % cell survival (MCF7 [Breast]; [13]): 72.4% and 70.3%; Growth delay ([4]; 10 mg/kg, i.p., d 0): 5.1 days; Maximum % weight loss ([4]; 10 mg/kg, i.p., d 0): 8.0%; weight loss of tumour bearing mice ([4]; xenograft studies, FIG. 6): significant weight loss
3 | 3-((2-(2-methoxy-ethoxy)(ethoxy)n)methyl)-6,7-dihydrodipyrido[1,2-a:2′,1′-c]pyrazine-5,8-diium bistrifluoromethanesulfonate [Compound C] | > 30000 nM | > 100000 nM | > 100000 nM | > 30000 nM | 82000 nM | 78000 nM | > 30000 nM | 97000 nM | > 100000 nM | 3.1 days | 0% | −0.470 V vs. SCE | −0.803 V vs. SCE | 
4 | 3-(((2-(2-methoxyethoxy)(ethoxy)n)ethyl) hexane-1,6-diyldicarbamate)methyl)-6,7-dihydrodipyrido[1,2-a:2′,1′-c]pyrazine-5,8-diium bistrifluoromethanesulfonate [G] |  |  |  |  |  |  |  |  |  |  |  |  |  | rank order of efficacy (ROS production) [7]: F>G>B>A; ROS production relative to vehicle treatment ([7]; room temperature): robustly increased ROS production
